Assay: Inhibition of alpha-glucosidase (unknown origin); call rule not given here
Parameters: species or system Homo sapiens

SMILES	IC50 (read-out: IC50)	IC50
CCCCCC(=O)c1ccc(OC(=O)CI)cc1O	8.97 µM	
CC(C)C(=O)c1ccc(OC(=O)CI)cc1O	14.4 µM	
CC(C)C(=O)Oc1ccc(C(=O)C(C)C)c(O)c1	72.5 µM	
COc1ccc(C(=O)Oc2c(C)cc(C(=O)C(C)C)c(O)c2Br)cc1	27.6 µM	
CC(C)C(=O)c1ccc(OC(=O)CCl)cc1O		Not Active
CC(=O)Oc1ccc(C(=O)C(C)C)c(O)c1		Not Active
CCCCC(=O)c1cc(C)c(O)cc1O		Not Active
O=c1c(-c2ccc(O)cc2)coc2cc(O)cc(O)c12 [GENISTEIN]	7.21 µM	
Cc1cc(C(=O)C(C)C)c(O)c(Br)c1OC(=O)c1ccc(I)cc1	25.4 µM	
Cc1cc(C(=O)C(C)C)c(O)c(Br)c1OC(=O)CCl	30.9 µM	
Cc1cc(C(=O)C(C)C)c(O)c(Br)c1O	21 µM	
Cc1ccc(C(=O)Oc2c(C)cc(C(=O)C(C)C)c(O)c2Br)cc1	25.2 µM	
CCCCCCC(=O)c1cc(C)c(O)cc1O	40.9 µM	
Cc1cc(C(=O)C(C)C)c(O)c(Br)c1OC(=O)c1ccc(F)cc1	15.7 µM	
CCCCCCC(=O)c1ccc(O)cc1O	81.9 µM	
CC(C)C(=O)c1ccc(OC(=O)CBr)cc1O	35.8 µM	

Continued, values first:

IC50 (read-out: IC50)	IC50	SMILES
43.2 µM		CCCC(=O)Oc1cc(O)c(C(=O)C(C)C)cc1C
5.58 µM		CCCCC(=O)c1cc(C)c(OC(=O)CI)cc1O
10.9 µM		Cc1cc(C(=O)C(C)C)c(O)cc1OC(=O)c1ccc(Cl)cc1
	Not Active	CC(=O)Oc1cc(O)c(C(=O)C(C)C)cc1C
8.45 µM		CCCCCCCCCC(=O)Oc1cc(O)c(C(=O)C(C)C)cc1C
28.1 µM		Cc1cc(C(=O)C(C)C)c(O)cc1OC(=O)c1cccc(Cl)c1
	Not Active	CCC(=O)Oc1cc(O)c(C(=O)C(C)C)cc1C
11.3 µM		CC(C)C(=O)c1cc(Br)c(OC(=O)CI)cc1O
16 µM		Cc1cc(C(=O)C(C)C)c(O)cc1OC(=O)C(C)(C)C
11.9 µM		Cc1cc(C(=O)C(C)C)c(O)c(Br)c1OC(=O)CBr
14.6 µM		Cc1cc(C(=O)C(C)C)c(O)cc1OC(=O)c1ccccc1
1.77 µM		CCCCCCC(=O)c1cc(C)c(OC(=O)CI)cc1O
5.93 µM		CCCCCCC(=O)Oc1cc(O)c(C(=O)C(C)C)cc1C
